Source: patent US20240299422A1, “Topical Cannabinoid Compositions and Methods for Treating Skin Diseases” (Avicanna Inc., priority 2021, published 2024)

Assay: Plasma profile of CBD after topical application in rats
Format: in vivo, Sprague Dawley Rats
Method: 12 Female Sprague Dawley Rats (150-200 g) were purchased from Charles River Laboratories (Wilmington, MA). Rats were allowed to acclimatise for one week prior to commencement of the study.
At day 0, rats were anaesthetised using 3% isoflurane via inhalation. The skin on the dorsal side of the rats was shaved and a circular area of approximately 18.09 cm^2 was marked onto the surface of the skin. Twice daily, cream was applied to the dorsal surface of the skin using a 1 ml syringe that was prefilled with the composition described in Example 1 at a dose of 15 mg/kg of cannabidiol (CBD). Following the application of the cream and in order to prevent the cream from being removed, dermal application jackets were applied to each of the rats. These were maintained on the animals for the duration of the study (i.e. 7 days). Every 24 hours, blood was collected by puncturing the saphenous vein with a 20 G needle. At each time point, approximately 200 μL of blood was collected into Microvette™ 200 ZGel collection tubes (Sarstedt). Blood samples were centrifuged at 1.5×104 RPM for 5 mins. Following this, plasma was isolated and stored at −80° C. until the end of the study when all samples were analysed simultaneously. […]
Plasma (20 μL) was added to a 1:1 (v/v) solution of acetonitrile:ethyl acetate at a ratio of 1:10 (plasma:organic solvent). […] The samples were reconstituted with LC-MS grade methanol prior to analysed by mass spectrometry.
LC analyses were performed on an Agilent 1260 LC infinity system consisting of a binary pump, a thermostated autosampler and a thermostated column compartment (Agilent, Waldbronn, Germany). Samples were analyzed on an Agilent Poroshell 120 C18 column (150×2.1 mm; 1.9 μm particle size) (Agilent, Waldbronn, Germany). […]
Tandem mass spectrometry was performed using a TSQ Endura™ Triple Quadrupole Mass Spectrometer (Thermo Fisher Scientific, Waltham, MA) operating in electrospray ionization (ESI). Xcalibur software (Thermo Fisher Scientific) was used for instrument control, data acquisition, qualitative and quantitative data analyses. […]

C=C(C)[C@@H]1CCC(C)=C[C@H]1c1c(O)cc(CCCCC)cc1O [CBD, cannabidiol]
Time of peak plasma concentration (topical composition of Example 1, 15 mg/kg CBD twice daily for 7 days, female rats): 96 h | Peak plasma concentration of CBD (topical composition of Example 1, 15 mg/kg CBD twice daily for 7 days, female rats, n=12): 21.08 ± 3.54 ng/mL | Plasma concentration of CBD by 168 h (topical composition of Example 1, 15 mg/kg twice daily, LOQ of LC-MS method 5 ng/ml): below the LOQ
